From US9763974B2, “Galacto-rhamnogalacturonate compositions for the treatment of diseases associated with elevated inducible nitric oxide synthase” (Galectin Therapeutics, Inc., priority 2012, dated 2017)

Test system: inducible nitric oxide synthase (iNOS) in liver tissue
Assay: iNOS immunostaining and digital morphometry in liver tissue, STAM mouse model of steatohepatitis
Assay type: in vivo
Settings: STAM mice
Procedure: The experimental model used in this example is the mouse in which diabetes was induced and a high fat diet was administered, a model that has been called STAM mice. Diabetes is induced immediately following birth with a single injection of streptozotocin and then four weeks later the mice are started on a high fat diet. This is a proven chronic inflammatory model in which the mice consistently develop steatohepatitis with hepatocyte fat accumulation, evidence of hepatocyte toxicity, portal and lobular inflammatory infiltrates, peri-sinusoidal fibrosis, advanced fibrosis with nodule formation, cirrhosis, and ultimately hepatocellular carcinoma in a certain percentage of animals.
GR-MD-02, produced as described in Example 1, was given in a dose of 60 mg/kg twice weekly intravenously for four (4) weeks starting at week 9 after initiation of the model through week 12.
GR-MD-02, produced as described in Example 1, was also given in a dose of 120 mg/kg, 60 mg/kg, 30 mg/kg, 10 mg/kg once weekly intravenously for six weeks at the each of the starting at week six of the model and ending at week 12.

## galacto-rhamnogalacturonate [GR-MD-02]
10 mg/kg once weekly intravenously for six weeks
  quantification of iNOS immunoreactivity (FIG. 3): statistically significant reductions
30 mg/kg once weekly intravenously for six weeks
  quantification of iNOS immunoreactivity (FIG. 3): statistically significant reductions
60 mg/kg twice weekly intravenously for 4 weeks, week 9 through week 12
  quantification of iNOS immunoreactivity (FIG. 1B): statistically significant reduction
60 mg/kg twice weekly intravenously for 4 weeks, week 9 through week 12, vs vehicle-treated control
  amount of iNOS detected in liver tissue (FIG. 1A): markedly reduced
10, 30, 60 or 120 mg/kg once weekly intravenously for six weeks, week 6 to week 12, vs vehicle-treated control
  amount of iNOS detected in liver tissue (FIG. 2): reduced
Various once weekly intravenous doses (10-120 mg/kg) for six weeks
  quantification of iNOS immunoreactivity (FIG. 3): reduction of iNOS immunoreactivity
